# Assays:
# Assay in all cases: biochemical
# Set-up in all cases: KINOMEscan active-site competition binding panel (468 kinase assays), per cent of control at 1000 nM
# Details in all cases: KINOMEscan per cent of control (binding competition); read-out: Percent Control
# IRAK4 = IRAK4 (Homo sapiens, UniProt Q9NWZ3)
# Excerpt: (§1) Figure S7 / Percent Control
# SRPK2 = SRPK2 (Homo sapiens, UniProt P78362)
# Excerpt: as §1
# ERN1 = ERN1 (Homo sapiens, UniProt O75460)
# Excerpt: as §1
# [1] = biological target: T1, ABL1(T315I)-phosphorylated (Homo sapiens, UniProt P00519, T315I)
# T1 construct: phosphorylated
# Excerpt: as §1
# PAK1 = PAK1 (Homo sapiens, UniProt Q13153)
# Chain of PAK1 (Q13153 whole entry): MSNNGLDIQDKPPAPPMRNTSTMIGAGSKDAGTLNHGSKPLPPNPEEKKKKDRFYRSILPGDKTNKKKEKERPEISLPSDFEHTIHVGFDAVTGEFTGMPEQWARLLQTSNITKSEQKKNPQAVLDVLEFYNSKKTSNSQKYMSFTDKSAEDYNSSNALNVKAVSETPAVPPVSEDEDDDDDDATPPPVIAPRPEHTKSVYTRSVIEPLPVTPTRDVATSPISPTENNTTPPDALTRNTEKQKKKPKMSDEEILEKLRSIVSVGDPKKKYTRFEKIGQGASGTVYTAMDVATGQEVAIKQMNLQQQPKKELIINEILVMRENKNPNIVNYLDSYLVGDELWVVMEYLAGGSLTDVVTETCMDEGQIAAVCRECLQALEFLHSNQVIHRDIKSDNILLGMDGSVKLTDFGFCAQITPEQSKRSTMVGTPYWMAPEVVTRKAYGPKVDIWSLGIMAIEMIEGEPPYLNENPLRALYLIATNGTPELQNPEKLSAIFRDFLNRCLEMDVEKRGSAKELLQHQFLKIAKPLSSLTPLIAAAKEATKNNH
# Excerpt: as §1
# JNK2 = biological target: T2, JNK2 (Homo sapiens, UniProt P45984)
# T2 construct: gene MAPK9
# Excerpt: as §1
# INSR = INSR (Homo sapiens, UniProt P06213)
# Chain of INSR (P06213 whole entry): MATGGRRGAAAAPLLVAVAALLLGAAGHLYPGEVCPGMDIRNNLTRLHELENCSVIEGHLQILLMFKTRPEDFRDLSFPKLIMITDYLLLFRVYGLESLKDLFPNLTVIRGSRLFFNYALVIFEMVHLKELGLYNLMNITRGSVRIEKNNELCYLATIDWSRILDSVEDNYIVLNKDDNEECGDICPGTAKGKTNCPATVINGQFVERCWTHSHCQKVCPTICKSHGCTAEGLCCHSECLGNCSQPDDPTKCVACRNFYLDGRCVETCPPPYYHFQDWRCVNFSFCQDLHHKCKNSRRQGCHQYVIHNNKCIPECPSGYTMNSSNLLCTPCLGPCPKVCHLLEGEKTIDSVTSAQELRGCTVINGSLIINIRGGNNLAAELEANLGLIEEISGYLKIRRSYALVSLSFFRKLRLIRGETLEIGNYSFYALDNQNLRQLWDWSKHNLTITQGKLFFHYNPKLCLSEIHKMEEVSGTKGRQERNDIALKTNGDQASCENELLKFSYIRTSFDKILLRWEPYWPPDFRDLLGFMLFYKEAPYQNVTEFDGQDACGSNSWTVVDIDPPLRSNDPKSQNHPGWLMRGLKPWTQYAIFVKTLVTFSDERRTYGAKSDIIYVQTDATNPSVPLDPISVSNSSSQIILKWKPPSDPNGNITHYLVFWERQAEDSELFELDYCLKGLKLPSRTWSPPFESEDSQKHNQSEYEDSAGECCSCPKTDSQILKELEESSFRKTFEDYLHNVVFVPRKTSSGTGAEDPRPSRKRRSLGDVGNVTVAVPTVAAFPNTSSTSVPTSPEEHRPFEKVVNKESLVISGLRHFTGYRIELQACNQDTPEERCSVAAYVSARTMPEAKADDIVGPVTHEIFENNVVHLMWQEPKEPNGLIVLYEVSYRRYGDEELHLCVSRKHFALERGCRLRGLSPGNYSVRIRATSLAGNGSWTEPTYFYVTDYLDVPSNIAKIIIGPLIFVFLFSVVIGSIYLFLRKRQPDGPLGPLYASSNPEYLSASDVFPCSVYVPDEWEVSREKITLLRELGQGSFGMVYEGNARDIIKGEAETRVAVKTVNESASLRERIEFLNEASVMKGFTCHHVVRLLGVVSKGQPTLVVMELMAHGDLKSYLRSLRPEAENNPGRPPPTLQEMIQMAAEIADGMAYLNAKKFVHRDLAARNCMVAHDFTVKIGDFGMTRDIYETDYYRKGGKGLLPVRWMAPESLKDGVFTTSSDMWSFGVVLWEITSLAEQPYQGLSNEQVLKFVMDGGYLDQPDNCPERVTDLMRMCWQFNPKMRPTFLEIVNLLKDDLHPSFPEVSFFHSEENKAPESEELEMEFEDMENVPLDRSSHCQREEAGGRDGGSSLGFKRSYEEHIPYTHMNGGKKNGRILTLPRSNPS
# Excerpt: as §1
# HIPK4 = HIPK4 (Homo sapiens, UniProt Q8NE63)
# Excerpt: as §1
# TAOK3 = TAOK3 (Homo sapiens, UniProt Q9H2K8)
# Chain of TAOK3 (Q9H2K8 whole entry): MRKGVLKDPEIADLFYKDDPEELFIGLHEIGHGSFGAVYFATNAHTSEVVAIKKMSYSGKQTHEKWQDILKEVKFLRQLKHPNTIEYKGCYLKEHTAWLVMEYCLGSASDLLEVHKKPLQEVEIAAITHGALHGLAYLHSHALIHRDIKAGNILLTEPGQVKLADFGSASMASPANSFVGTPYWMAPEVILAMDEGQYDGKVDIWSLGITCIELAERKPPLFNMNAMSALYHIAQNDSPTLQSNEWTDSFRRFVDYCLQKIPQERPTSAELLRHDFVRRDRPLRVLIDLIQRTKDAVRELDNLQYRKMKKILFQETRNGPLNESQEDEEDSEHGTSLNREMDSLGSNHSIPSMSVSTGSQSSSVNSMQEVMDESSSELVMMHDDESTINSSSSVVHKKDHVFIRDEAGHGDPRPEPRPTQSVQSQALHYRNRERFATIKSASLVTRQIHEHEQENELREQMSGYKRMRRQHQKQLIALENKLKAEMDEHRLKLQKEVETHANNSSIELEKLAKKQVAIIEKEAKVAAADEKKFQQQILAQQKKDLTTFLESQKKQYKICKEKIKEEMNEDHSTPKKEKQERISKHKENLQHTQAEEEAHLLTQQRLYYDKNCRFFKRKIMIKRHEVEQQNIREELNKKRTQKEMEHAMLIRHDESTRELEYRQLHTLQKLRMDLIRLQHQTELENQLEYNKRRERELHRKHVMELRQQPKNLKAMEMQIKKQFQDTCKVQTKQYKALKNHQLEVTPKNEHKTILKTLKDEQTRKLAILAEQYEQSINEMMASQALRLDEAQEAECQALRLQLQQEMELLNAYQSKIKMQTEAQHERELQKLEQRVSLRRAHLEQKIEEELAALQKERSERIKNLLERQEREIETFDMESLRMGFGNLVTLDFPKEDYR
# Excerpt: as §1
# ULK2 = ULK2 (Homo sapiens, UniProt Q8IYT8)
# Excerpt: as §1
# PIK3CA = PIK3CA (Homo sapiens, UniProt P42336)
# Excerpt: as §1
# PRKD3 = PRKD3 (Homo sapiens, UniProt O94806)
# Excerpt: as §1
# TYRO3 = TYRO3 (Homo sapiens, UniProt Q06418)
# Chain of TYRO3 (Q06418 whole entry): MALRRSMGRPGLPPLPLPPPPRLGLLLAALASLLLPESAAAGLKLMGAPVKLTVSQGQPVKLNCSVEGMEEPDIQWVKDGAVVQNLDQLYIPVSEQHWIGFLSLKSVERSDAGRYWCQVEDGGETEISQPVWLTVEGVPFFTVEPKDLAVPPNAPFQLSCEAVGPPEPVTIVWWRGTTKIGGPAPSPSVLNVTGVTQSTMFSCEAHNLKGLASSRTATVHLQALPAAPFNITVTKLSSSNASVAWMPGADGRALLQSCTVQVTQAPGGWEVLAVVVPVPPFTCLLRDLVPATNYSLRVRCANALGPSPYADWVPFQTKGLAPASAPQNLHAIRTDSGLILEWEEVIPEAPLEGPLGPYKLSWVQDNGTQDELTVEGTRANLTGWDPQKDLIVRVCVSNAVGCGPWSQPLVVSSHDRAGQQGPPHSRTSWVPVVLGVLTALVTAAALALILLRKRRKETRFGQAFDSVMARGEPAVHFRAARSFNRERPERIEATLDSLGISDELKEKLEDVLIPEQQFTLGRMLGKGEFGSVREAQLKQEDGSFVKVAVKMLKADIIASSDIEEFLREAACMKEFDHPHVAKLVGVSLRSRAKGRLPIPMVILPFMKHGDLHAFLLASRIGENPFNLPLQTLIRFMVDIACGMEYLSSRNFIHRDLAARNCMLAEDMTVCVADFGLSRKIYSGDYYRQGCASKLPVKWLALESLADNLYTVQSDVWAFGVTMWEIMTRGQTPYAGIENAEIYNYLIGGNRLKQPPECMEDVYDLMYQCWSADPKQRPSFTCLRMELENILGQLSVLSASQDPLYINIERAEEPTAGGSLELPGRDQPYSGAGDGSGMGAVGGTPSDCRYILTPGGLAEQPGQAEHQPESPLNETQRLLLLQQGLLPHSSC
# Excerpt: as §1
# EIF2AK1 = EIF2AK1 (Homo sapiens, UniProt Q9BQI3)
# Excerpt: as §1
# EPHA6 = EPHA6 (Homo sapiens, UniProt Q9UF33)
# Excerpt: as §1
# EPHA1 = EPHA1 (Homo sapiens, UniProt P21709)
# Excerpt: as §1
# VEGFR2 = biological target: T3, VEGFR2 (Homo sapiens, UniProt P35968)
# T3 construct: gene KDR
# Excerpt: as §1
# PRKCQ = PRKCQ (Homo sapiens, UniProt Q04759)
# Excerpt: as §1
# SGK2 = SGK2 (Homo sapiens, UniProt Q9HBY8)
# Chain of SGK2 (Q9HBY8 whole entry): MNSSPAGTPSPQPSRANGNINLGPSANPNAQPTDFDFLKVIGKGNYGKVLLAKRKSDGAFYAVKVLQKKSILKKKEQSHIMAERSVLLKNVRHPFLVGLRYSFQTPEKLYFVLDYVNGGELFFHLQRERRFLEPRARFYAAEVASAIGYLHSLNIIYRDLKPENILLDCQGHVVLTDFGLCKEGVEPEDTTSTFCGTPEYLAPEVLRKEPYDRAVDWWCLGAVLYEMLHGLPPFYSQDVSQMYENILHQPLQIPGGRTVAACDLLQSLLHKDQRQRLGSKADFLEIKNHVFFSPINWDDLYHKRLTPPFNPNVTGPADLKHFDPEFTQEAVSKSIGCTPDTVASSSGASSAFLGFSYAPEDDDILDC
# Excerpt: as §1
# LTK = LTK (Homo sapiens, UniProt P29376)
# Excerpt: as §1
# PIK3CA(E545A) = PIK3CA(E545A) (Homo sapiens, UniProt P42336, E545A)
# Excerpt: as §1
# EGFR(G719C) = EGFR(G719C) (Homo sapiens, UniProt P00533, G719C)
# Excerpt: as §1
# SYK = SYK (Homo sapiens, UniProt P43405)
# Excerpt: as §1
# TAOK1 = TAOK1 (Homo sapiens, UniProt Q7L7X3)
# Excerpt: as §1
# GSK3B = GSK3B (Homo sapiens, UniProt P49841)
# Excerpt: as §1
# Chain of ERN1 (O75460 whole entry): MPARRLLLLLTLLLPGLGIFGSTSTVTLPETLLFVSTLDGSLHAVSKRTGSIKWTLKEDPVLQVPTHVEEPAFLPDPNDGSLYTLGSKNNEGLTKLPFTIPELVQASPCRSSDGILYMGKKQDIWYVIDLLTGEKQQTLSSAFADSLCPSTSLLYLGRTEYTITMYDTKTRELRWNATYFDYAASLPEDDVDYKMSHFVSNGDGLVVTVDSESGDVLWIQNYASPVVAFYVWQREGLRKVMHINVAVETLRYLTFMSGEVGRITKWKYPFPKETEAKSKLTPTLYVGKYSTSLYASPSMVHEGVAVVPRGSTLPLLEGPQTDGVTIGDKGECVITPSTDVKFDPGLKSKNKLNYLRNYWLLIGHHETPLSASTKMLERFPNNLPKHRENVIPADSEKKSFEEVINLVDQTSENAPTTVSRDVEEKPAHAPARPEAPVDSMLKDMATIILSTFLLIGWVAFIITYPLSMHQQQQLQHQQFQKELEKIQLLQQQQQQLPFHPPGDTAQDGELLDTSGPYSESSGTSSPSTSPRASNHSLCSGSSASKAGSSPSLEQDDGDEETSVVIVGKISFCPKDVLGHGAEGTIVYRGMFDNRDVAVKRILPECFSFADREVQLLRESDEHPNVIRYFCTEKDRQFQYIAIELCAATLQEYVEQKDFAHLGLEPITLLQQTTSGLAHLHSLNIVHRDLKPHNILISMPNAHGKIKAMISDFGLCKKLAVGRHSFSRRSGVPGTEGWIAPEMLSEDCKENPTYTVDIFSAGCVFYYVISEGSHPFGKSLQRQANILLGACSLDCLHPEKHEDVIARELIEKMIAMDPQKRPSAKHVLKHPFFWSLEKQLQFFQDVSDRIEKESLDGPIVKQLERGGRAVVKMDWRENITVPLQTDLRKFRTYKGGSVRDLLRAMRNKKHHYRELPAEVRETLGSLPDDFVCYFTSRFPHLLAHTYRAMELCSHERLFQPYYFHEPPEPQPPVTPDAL
structure (smiles),measurement,setting,value
Cn1c(=O)[nH]c2ccc(-c3cccc(C(=O)NC4CCn5ccnc5C4)c3)cc21 (stereo not shown) [Z36-MP5],remaining binding at 1 µM,IRAK4,78%
same,remaining binding at 1 µM,SRPK2,63%
same,remaining binding at 1 µM,ERN1,49%
same,remaining binding at 1 µM,[1],49%
same,remaining binding at 1 µM,PAK1,87%
same,remaining binding at 1 µM,JNK2,54%
same,remaining binding at 1 µM,INSR,57%
same,remaining binding at 1 µM,HIPK4,91%
same,remaining binding at 1 µM,TAOK3,54%
same,remaining binding at 1 µM,ULK2,59%
same,remaining binding at 1 µM,PIK3CA,97%
same,remaining binding at 1 µM,PRKD3,91%
same,remaining binding at 1 µM,TYRO3,100%
same,remaining binding at 1 µM,EIF2AK1,73%
same,remaining binding at 1 µM,EPHA6,69%
same,remaining binding at 1 µM,EPHA1,96%
same,remaining binding at 1 µM,VEGFR2,56%
same,remaining binding at 1 µM,PRKCQ,86%
same,remaining binding at 1 µM,SGK2,64%
same,remaining binding at 1 µM,LTK,82%
same,remaining binding at 1 µM,PIK3CA(E545A),89%
same,remaining binding at 1 µM,EGFR(G719C),79%
same,remaining binding at 1 µM,SYK,57%
same,remaining binding at 1 µM,TAOK1,100%
same,remaining binding at 1 µM,GSK3B,81%

# From publication PMC10924921, “Mi-2β promotes immune evasion in melanoma by activating EZH2 methylation” (Nature Communications, 2024)
